Like-named read-outs stand apart in the source and are kept apart here.
Assays:
[1] = system: MCF-7 cells (with PI3Kα E545K mutation); test: In vitro inhibition of MCF-7 cell proliferation (CellTiter-Lumi); assay type: cell-based
Description: Biological Example 3. Assay for In Vitro Inhibition of MCF-7 Cell Proliferation by Compounds of the Present Disclosure
MCF-7 cells (with PI3Kα E545K mutation) were seeded into a 384-well plate (Fisher 142762) at 2000 cells per well. The next day, serially diluted compounds were added, and 144 h after the addition, CellTiter-Lumi (Beyotime C0068XL) was added to measure the ATP content in the cells. The growth of the cells was evaluated, and the IC50 for the inhibition of cell growth by the compounds was calculated.

[2] = system: HCC1954 cells (with PI3Kα H1047R mutation); test: In vitro inhibition of HCC1954 cell proliferation (CellTiter-Lumi); assay type: cell-based; details: HCC1954 cells, 144 h, CellTiter-Lumi
Description: Assay for In Vitro Inhibition of HCC1954 Cell Proliferation by Compounds of the Present Disclosure
The growth of the cells was evaluated, and the IC50 for the inhibition of cell growth by the compounds was calculated.

[3] = Homo sapiens, MCF7, 144 h, numeric values, read-out: Inhibitory activity against MCF-7 cells (IC50)
[4] = Homo sapiens, HCC1954, 144 h, numeric values, read-out: Inhibitory activity against HCC1954 cells (IC50)
[5] = Homo sapiens, MCF7, 144 h, class symbols, read-out: Inhibitory activity against MCF-7 cells (IC50), class symbols
[6] = Homo sapiens, HCC1954, 144 h, class symbols, read-out: Inhibitory activity against HCC1954 cells (IC50), class symbols

SMILES | IC50 [1, 3] | IC50 [2, 4] | IC50 [1, 5] | IC50 [2, 6] | further results
C=CC(=O)Nc1ccc(N2CC(N3CCN(c4ccc5c(c4)-c4nc(N6C(=O)OC[C@H]6C)cn4CCO5)CC3)C2)cn1 [Compound 147] | 1.5 nM | 29 nM | – | – | –
CC(C)OC(=O)OCOP(=O)(OCNC(C)(C)C=C(C#N)C(=O)Nc1ccc(N2CC(N3CCN(c4ccc5c(c4)-c4nc(N6C(=O)OC[C@H]6C(F)F)cn4CCO5)CC3)C2)cc1)OCOC(=O)OC(C)C [Compound 334] | – | – | < 50 nM | < 50 nM | –
Cc1nc(-c2cn3c(n2)-c2cc(N4CCN(C5CN(c6ccc(NC(=O)C(C#N)=CC(C)(C)C)c(Cl)c6)C5)CC4)ccc2OCC3)n(C(C)C)n1 [Compound 370] | – | – | < 50 nM | < 50 nM | –
COCCNC(C)(C)C=C(C#N)C(=O)Nc1ccc(N2CC(N3CCN(c4ccc5c(c4)-c4nc(N6C(=O)OC[C@H]6C(F)F)cn4CCO5)CC3)C2)cn1 [Compound 301] | – | – | < 50 nM | < 50 nM | –
CC(C)(C=C(C#N)C(=O)Nc1ccc(N2CC(N3CCN(c4ccc5c(c4)-c4nc(N6C(=O)OC[C@H]6C(F)F)cn4CCO5)CC3)C2)nc1)NC1(C)COC1 [Compound 386] | – | – | < 50 nM | < 50 nM | –
CC(C)(C=C(C#N)C(=O)Nc1ccc(N2CC(N3CCN(c4ccc5c(c4)-c4nc(N6C(=O)OC[C@H]6C(F)F)cn4CCO5)CC3)C2)c(F)c1)NC(=O)OC(C)(C)C [Compound 345] | – | – | < 50 nM | < 50 nM | –
CNC(C)(C)C=C(C#N)C(=O)Nc1ncc(N2CC(N3CCN(c4ccc5c(c4)-c4nc(N6C(=O)OC[C@H]6C(F)F)cn4CCO5)CC3)C2)cn1 [Compound 300] | – | – | < 50 nM | < 50 nM | –
C=CC(=O)Nc1ccc(N2CC(N3CCN(c4ccc5c(c4)-c4nc(N6C(=O)OC[C@H]6C(F)F)cn4CCO5)CC3)C2)c(Cl)c1 [Compound 195] | 0.3 nM | 4.6 nM | – | – | –
C=CC(=O)Nc1ccc(N2CC(N3CCN(c4ccc5c(c4)-c4nc(N6C(=O)OC[C@H]6C(F)F)cn4CCO5)CC3)C2)cc1OC(F)(F)F [Compound 279] | 0.1 nM | 2.8 nM | – | – | –
C=CC(=O)N1CCc2cc(N3CC(N4CCN(c5ccc6c(c5)-c5nc(N7C(=O)OC[C@H]7C(F)F)cn5CCO6)CC4)C3)ccc21 [Compound 134] | 0.2 nM | 2.7 nM | – | – | –
CC(C)(C=C(C#N)C(=O)Nc1ccc(N2CC(N3CCN(c4ccc5c(c4)-c4nc(N6C(=O)OC[C@H]6C(F)F)cn4CCO5)CC3)C2)cc1)NCC1CCO1 (stereo partly drawn) [Compound 382] | – | – | < 50 nM | < 50 nM | –
CN(C1COC1)C(C)(C)C=C(C#N)C(=O)Nc1ccc(N2CC(N3CCN(c4ccc5c(c4)-c4nc(N6C(=O)OC[C@H]6C(F)F)cn4CCO5)CC3)C2)cc1 [Compound 274] | – | – | < 50 nM | < 50 nM | –
N#CC(=CC1CC1)C(=O)Nc1ccc(N2CC(N3CCN(c4ccc5c(c4)-c4nc(N6C(=O)OC[C@H]6C(F)F)cn4CCO5)CC3)C2)nc1 [Compound 245] | – | – | < 50 nM | < 50 nM | –
C=CC(=O)Nc1ccc(CN2CCN(c3ccc4c(c3)-c3nc(N5C(=O)OC[C@H]5C(F)F)cn3CCO4)CC2)cc1 [Compound 44] | 151 nM | 644 nM | – | – | –
C=CC(=O)Nc1ccc(CN2C[C@@H]3CN(c4ccc5c(c4)-c4nc(N6C(=O)OC[C@H]6C(F)F)cn4CCO5)C[C@@H]3C2)cc1 [Compound 41] | 40 nM | 191 nM | – | – | –
N#CC(=CC1(N)CC1)C(=O)Nc1ccc(N2CC(N3CCN(c4ccc5c(c4)-c4nc(N6C(=O)OC[C@H]6C(F)F)cn4CCO5)CC3)C2)nc1 [Compound 253] | – | – | < 50 nM | < 50 nM | –
C=CC(=O)Nc1ccc(N2CCN(c3ccc(-c4ccc5c(c4)-c4nc(N6C(=O)OC[C@H]6C(F)F)cn4CCO5)cc3)CC2)cc1 [Compound 196] | – | – | > 1000 nM | > 1000 nM | –
CC(C)(C=C(C#N)C(=O)Nc1ccc(N2CC(N3CCN(c4ccc5c(c4)-c4nc(N6C(=O)OC[C@H]6C(F)F)cn4CCO5)CC3)C2)cc1)N1CCNCC1 [Compound 306] | – | – | < 50 nM | < 50 nM | –
C=CC(=O)Nc1ccc(N2CC(/C=C/c3ccc4c(c3)-c3nc(N5C(=O)OC[C@H]5C(F)F)cn3CCO4)C2)cc1 [Compound 208] | – | – | < 50 nM | 50 to 100 nM | –
CC(C)(C)C=C(C#N)C(=O)Nc1ccc(N2CC(N3CCN(c4ccc5c(c4)-c4nc(N6C(=O)OC[C@H]6C(F)F)cn4CCO5)CC3)C2)cc1 [Compound 136] | 29 nM | 71 nM | – | – | –
C=CC(=O)Nc1ccc(N2CC(C3CCN(c4ccc5c(c4)-c4nc(N6C(=O)OC[C@H]6C(F)F)cn4CCO5)CC3)C2)cc1 [Compound 130] | 14 nM | 70 nM | – | – | –

SMILES | IC50 [1, 3] | IC50 [2, 4] | IC50 [1, 5] | IC50 [2, 6] | further results
CC(C)(N)C=C(C#N)C(=O)Nc1ccc(N2CC(N3CCN(c4ccc5c(c4)-c4nc(N6C(=O)OC[C@H]6C(F)F)cn4CCO5)CC3)C2)cc1 [Compound 137] | 0.1 nM | 0.6 nM | – | – | –
N#CC(=CC1CCCC1)C(=O)Nc1ccc(N2CC(N3CCN(c4ccc5c(c4)-c4nc(N6C(=O)OC[C@H]6C(F)F)cn4CCO5)CC3)C2)cc1 [Compound 393] | – | – | < 50 nM | < 50 nM | –
C=CC(=O)Nc1ccc(N2CC(N3CCN(c4ccc5c(c4)-c4nc(N6C(=O)OC[C@H]6C(F)F)cn4CCO5)CC3)C2)nc1 [Compound 122] | 0.4 nM | 7 nM | – | – | –
CC(C)(N)C=C(C#N)C(=O)Nc1ccc(N2CC(N3CCN(c4ccc5c(c4)-c4nc(N6C(=O)OC[C@H]6C(F)F)cn4CCO5)CC3)C2)nc1 [Compound 242] | – | – | < 50 nM | < 50 nM | –
CCC(N)(C=C(C#N)C(=O)Nc1ccc(N2CC(N3CCN(c4ccc5c(c4)-c4nc(N6C(=O)OC[C@H]6C(F)F)cn4CCO5)CC3)C2)cc1)CC [Compound 395] | – | – | < 50 nM | < 50 nM | –
CC1CN(C(C)(C)C=C(C#N)C(=O)Nc2ccc(N3CC(N4CCN(c5ccc6c(c5)-c5nc(N7C(=O)OC[C@H]7C(F)F)cn5CCO6)CC4)C3)cc2)CC(C)N1 (stereo partly drawn) [Compound 309] | – | – | < 50 nM | < 50 nM | –
CC(C)(C=C(C#N)C(=O)Nc1ccc(N2CC(N3CCN(c4ccc5c(c4)-c4nc(N6C(=O)OC[C@H]6C(F)F)cn4CCO5)CC3)C2)cc1)OCOP(=O)(OCOC(=O)C(C)(C)C)OCOC(=O)C(C)(C)C [Compound 343] | – | – | < 50 nM | < 50 nM | –
CC(C)(N)C=C(C#N)C(=O)Nc1ncc(N2CC(N3CCN(c4ccc5c(c4)-c4nc(N6C(=O)OC[C@H]6C(F)F)cn4CCO5)CC3)C2)cn1 [Compound 294] | – | – | < 50 nM | < 50 nM | –
CC1(C=C(C#N)C(=O)Nc2cnc(N3CC(N4CCN(c5ccc6c(c5)-c5nc(N7C(=O)OC[C@H]7C(F)F)cn5CCO6)CC4)C3)nc2)COC1 [Compound 269] | – | – | < 50 nM | < 50 nM | –
C=C(F)C(=O)Nc1ccc(N2CC(CN3CCN(c4ccc5c(c4)-c4nc(N6C(=O)OC[C@H]6C(F)F)cn4CCO5)CC3)C2)cc1 [Compound 46] | 74 nM | 306 nM | – | – | –
CC(C)(C=C(C#N)C(=O)Nc1ccc(N2CC(N3CCN(c4ccc5c(c4)-c4nc(N6C(=O)OC[C@H]6C(F)F)cn4CCO5)CC3)C2)cc1)NC(=O)OC(C)(C)C [Compound 324B] | – | – | – | – | IC50 ([1]; 144 h, numeric values, read-out: Inhibitory activity against MCF-7 cells (IC50)): 2.6 nM; IC50 ([2]; numeric values, read-out: Inhibitory activity against HCC1954 cells (IC50)): 6.2 nM
C=CC(=O)N1CCc2cc(N3CC(N4CCN(c5ccc6c(c5)-c5nc(N7C(=O)OC[C@H]7C(F)F)cn5CCO6)CC4)C3)cnc21 [Compound 167] | 219 nM | 544 nM | – | – | –
CC(C)(C=C(C#N)C(=O)Nc1ccc(N2CC(N3CCN(c4ccc5c(c4)-c4nc(N6C(=O)OC[C@H]6C(F)F)cn4CCO5)CC3)C2)cc1)N1CCC2(CC1)COC2 [Compound 312] | – | – | < 50 nM | < 50 nM | –
CC(=O)N1CCN(C(C)(C)C=C(C#N)C(=O)Nc2ccc(N3CC(N4CCN(c5ccc6c(c5)-c5nc(N7C(=O)OC[C@H]7C(F)F)cn5CCO6)CC4)C3)cc2)CC1 [Compound 310] | – | – | < 50 nM | < 50 nM | –
CNC(C)(C)C=C(C#N)C(=O)Nc1cc(N2CC(N3CCN(c4ccc5c(c4)-c4nc(N6C(=O)OC[C@H]6C(F)F)cn4CCO5)CC3)C2)n(C)n1 [Compound 219] | – | – | < 50 nM | < 50 nM | –
CC(C)=CC(=O)CCCCC(=O)N1CC(N2CCN(c3ccc4c(c3)-c3nc(N5C(=O)OC[C@H]5C(F)F)cn3CCO4)CC2)C1 [Compound 157] | 24 nM | 228 nM | – | – | –
CC(=O)NC(C)(C)C=C(C#N)C(=O)Nc1ccc(N2CC(N3CCN(c4ccc5c(c4)-c4nc(N6C(=O)OC[C@H]6C(F)F)cn4CCO5)CC3)C2)c(Cl)c1 [Compound 357] | – | – | < 50 nM | < 50 nM | –
C=CC(=O)Nc1ccc(N2CC(N3CCN(c4ccc5c(c4)-c4nc(N6C(=O)OC[C@H]6C(F)F)cn4CCO5)CC3)C2)cc1C#N [Compound 143] | 0.1 nM | 2.2 nM | – | – | –
C=CC(=O)N1CCN(CCC(=O)N2CCN(c3ccc4c(c3)-c3nc(N5C(=O)OC[C@H]5C(F)F)cn3CCO4)CC2)CC1 [Compound 13] | 40 nM | 862 nM | – | – | –
C=CC(=O)Nc1ccc(N2CCC(N3CCN(c4ccc5c(c4)-c4nc(N6C(=O)OC[C@H]6C(F)F)cn4CCO5)CC3)C2)cc1 (stereo partly drawn) [Compound 28] | 18 nM | 180 nM | – | – | –
CC(C)(N)C=C(C#N)C(=O)Nc1ccc(N2CC(N3CCN(c4ccc5c(c4)-c4nc(N6C(=O)OC[C@H]6C(F)F)cn4CCO5)CC3)C2)c(Cl)c1 [Compound 351] | – | – | < 50 nM | < 50 nM | –
